Measured values as given in patent US7132506B2, “Peptide having osteogenetic activity and osteogenetic accelerator containing the same” (Kyocera Corporation, priority 2001, dated 2006).

test system: C3H10T1/2 cell strain; assay: Induction of alkali phosphatase activity in C3H10T1/2 cell strain; type: cell-based, mouse; settings: 200 μg peptide solidified per well by air drying; three days of incubation; blank wells 0.24±0.11
Experimental: Undifferentiated mouse mesenchymal cell strain C3H10T1/2 (purchased from Dai-Nippon Seiyaku KK, Japan) was dispersed in Eagle's MEM medium containing 10% of fetal bovine serum in a cell concentration of 3.75×10^4 cells/mL, and thus a cell culture liquid was prepared.
Three days after the start of incubation, a culture supernatant was removed, and the wells were washed once with phosphate buffer (PBS: 10 mM, containing 0.15 M of common salt, pH 7.4). To each well of the 96-hole plates, 100 μL of Tris buffer (20 mM, pH 8.5) containing 1% Triton X-100 was added and allowed to stand for 30 minutes to dissolve cells. With respect to 100 μL of the resulting cell solution, 100 μL of Tris buffer (1.5 M, containing 1 mM of ZnCl2 and 1 mM of MgCl2, pH 8.5) containing 7.5 mM of p-nitrophenyl phosphate (purchased from Wako Junyaku Kogyo, Japan) were added. Increase in absorbency at 405 nm was measured to determine the alkaline phosphatase activity in the cell solution. The concentration of protein in the cell solution was also determined using a BCA assay kit (produced by Pierce).

| Substance | alkaline phosphatase activity |
| --- | --- |
| Example 2: Peptide having amino acid sequence SEQ ID NO:4 with an amino group at the N terminal and an amide group at the C terminal (H-NSVNSKIPKACSVPTELSAISTLYL-NH2) | 1.5±0.6 nmol/min·mg-protein |
| Example 1: Peptide having amino acid sequence SEQ ID NO:4 with an amino group at the N terminal and a carboxyl group at the C terminal (NSVNSKIPKACSVPTELSAISTLYL) | 1.3±0.9 nmol/min·mg-protein |
| Example 3: Peptide having amino acid sequence SEQ ID NO:5 with an amino group at the N terminal and an amide group at the C terminal (H-NSVNSKIPKASSVPTELSAISTLYL-NH2) | 1.5±0.8 nmol/min·mg-protein |
| Example 4: Peptide having amino acid sequence SEQ ID NO:6 with an amino group at the N terminal and an amide group at the C terminal (H-KIPKASSVPTELSAISTLYL-NH2) | 1.7±0.1 nmol/min·mg-protein |
